# Results taken from US20140220552A1, “BLOOD COLLECTION DEVICES CONTAINING CONTACT PATHWAY INHIBITION ADDITIVES” (Becton, Dickinson and Company, priority 2013, published 2014).
# “Also recorded” adds a separate entry of the source.
# Key:
# thrombin = assay: TT assay in plasma (exogenous thrombin); assay type: biochemical, human; conditions: plasma containing inhibitor, FIG. 6
# Excerpt: (§1) FIG. 6 was obtained by performing matched aPTT, PT, and TT assays from plasma containing various inhibitors. These assays are well known to those skilled in the art and are not described in great detail here. […] Corn trypsin inhibitor (CTI) was included as a control since it is the factor XIIa inhibitor currently available in a blood collection tube.
# [1] = tested on: contact coagulation pathway; assay: activated partial thromboplastin time (aPTT) assay in plasma; assay type: biochemical, human; conditions: plasma containing inhibitor, FIG. 6, anti-FXI antibody at 7.5 μg/mL
# Excerpt: as §1
# (§2) Citrated human WB is transferred from a blood collection bag into coated (siliconized) glass or plastic blood collection tubes, or uncoated glass, polypropylene (PP), polystyrene (PS), or polyethylene terephthalate (PET) conical bottom tubes, either alone or in the presence of inhibitors targeting kallikrein (e.g. aprotinin) or FXIa (e.g. anti-human Factor XI antibody). After 15 minutes incubation, the TEG R value is obtained immediately after addition of 10 mM CaCl2. Matched plasma specimens are analyzed by the CAT in the presence and absence of 1 picomolar Tissue Factor (TF) and by activated partial thromboplastin time (APTT; Stago Compact). Data are analyzed by ANOVA with Tukey's post-test and by linear regression.
# TF coagulation pathway = assay: PT assay in plasma (high dose tissue factor); assay type: biochemical, human; conditions: for thrombin generation in tests that monitor the TF coagulation pathway exclusively: identical samples as aPTT, FIG. 6 lower panels; for PT clotting time result: plasma containing inhibitor, FIG. 6
# Excerpt: as §1
# This verifies that aprotinin exclusively suppresses thrombin formation through the contact coagulation pathway but not through the TF pathway.
# [2] = tested on: contact coagulation pathway; assay: Thrombelastography (TEG) citrated-native whole blood clotting time (R time) after recalcification; assay type: biochemical, human
# Protocol: FIGS. 2A and 2B are a table and chart comparing recalcified clotting times for tubes made from various materials using a Thrombelastograph® (TEG) 5000 Hemostasis Analyzer. […] Briefly, BD Vacutainer® 369714 glass and 363083 plastic citrate tubes were washed and dried to remove the citrate additive. Afterwards, tubes were filled to capacity using a commercial bag of citrated human whole blood. Samples were incubated for 15 minutes at room temperature with gentle rocking to promote blood contact with the surface material of the tube wall. Finally, the whole blood clotting time was measured using combined recalcification and TEG. […] Furthermore, it is important to note that only highly sensitive coagulation assays that are performed in the absence of a strong contact pathway activator will be sensitive to these differences.
# The titration was performed by evaluating whole blood clotting time (TEG R time). A minimally effective dose was determined at 1000 kallikrein inhibitor units (1000 KIU) per mL of blood as concentrations below that only provided mean clotting times that were either equivalent or lower to that of siliconized glass.
# The titration was performed by evaluating whole blood clotting time (TEG R time).
# as §2
# As shown in FIG. 4(A) various concentrations of aprotinin were used in tests to determine the impact on whole blood clotting time using TEG. […]
# [3] = sterilization stability of the additive in a blood collection tube; assay type: physicochemical
# Excerpt: FIG. 7 provides a comparison of kallikrein, factor XIIa, and factor IX inhibition for the purposes of mitigating contact pathway contributions to thrombin generation.
# An advantage of using aprotinin over CTI or anti-Factor XI antibody is that neither of the latter two inhibitors can be present in a tube that has been sterilized.
# thrombin generation = assay: Calibrated Automated Thrombogram (CAT) thrombin generation assay in citrated plasma; assay type: biochemical, human
# Excerpt: FIGS. 3A and 3B is a table and chart comparing thrombin generation from citrated plasma obtained from tubes made of various materials using the Calibrated Automated Thrombogram (CAT) assay. The CAT assay, rather than measuring coagulation, combines the use of a fluorogenic substrate that is cleaved in the presence of thrombin as well as a calibrator to provide a quantitative measurement of thrombin generation in a recalcified plasma sample. The predominant use of this assay is to examine the thrombin generation profile of a clinical research sample in response to tissue factor (TF). […] The charts contained in FIG. 3B provide example thrombin generation curves that were used to populate the data table in FIG. 3A.
# as §2, with “After 15 minutes incubation, the TEG R value is obtained immediately after addition of 10 mM CaCl2.” left out, “regression. […]” for “regression.”
Substance,TT clotting time result (thrombin),aPTT result [1],thrombin generation in tests that monitor the TF coagulation pathway exclusively (TF coagulation pathway),PT clotting time result (TF coagulation pathway),"whole blood clotting time (TEG R time) ([2]; 2000 KIU/mL aprotinin, blood in uncoated glass, compared with siliconized glass or plastic)","minimally effective dose by whole blood clotting time (TEG R time) ([2]; aprotinin titration in citrated blood, lower concentrations gave clotting times equivalent or lower to siliconized glass)","aprotinin concentration mitigating the contact coagulation pathway in uncoated glass tubes to a level equivalent to siliconized glass or plastic tubes ([2]; citrated blood in uncoated glass tubes, TEG) [KIU/mL]",sterilization stability [3],"mitigation of contact pathway contributions to thrombin generation (CAT) (thrombin generation; glass and plastic citrate tubes, FIG. 7)","thrombin generation (CAT), effect of increasing aprotinin (thrombin generation; siliconized glass and plastic tubes, FIG. 4B)",aPTT result ([1]; listed as Aprotinin)
Corn trypsin inhibitor [CTI],none of the inhibitors produced prolonged PT or TT assays,Equivalent inhibition,unaffected,none of the inhibitors produced prolonged PT or TT assays,–,–,–,–,–,–,–
aprotinin,none of the inhibitors produced prolonged PT or TT assays,equivalent to or greater than the time to generate thrombin in the presence of CTI and anti-Factor XI antibody,unaffected,none of the inhibitors produced prolonged PT or TT assays,longer clotting times than that of blood stored in either siliconized glass or plastic,1000 KIU per mL of blood,≥ 1000,sterilization stable,robustly diminished; also recorded: equivalent to that of CTI and anti-Factor XI antibody,delays and reduces thrombin generation in a dose dependent fashion; also recorded: thrombin generation is decreased and delayed,dose dependent effect
